# Measured values from the NIST ThermoML archive (doi:10.1021/acs.jced.6b00688).
# Numbers after ± are expanded uncertainties.
# Conditions: for viscosity / mass density: 101.33 kPa, Liquid; for viscosity: Falling or rolling sphere viscometry; for mass density: Vibrating tube method; for Normal melting temperature: Crystal, DTA
viscosity (293.15 K) [mPa·s],mass density (293.15 K) [kg/m3],viscosity (298.15 K) [mPa·s],mass density (298.15 K) [kg/m3],viscosity (303.15 K) [mPa·s],mass density (303.15 K) [kg/m3],viscosity (308.15 K) [mPa·s],mass density (308.15 K) [kg/m3],viscosity (313.15 K) [mPa·s],mass density (313.15 K) [kg/m3],viscosity (318.15 K) [mPa·s],mass density (318.15 K) [kg/m3],viscosity (323.15 K) [mPa·s],mass density (323.15 K) [kg/m3],viscosity (328.15 K) [mPa·s],mass density (328.15 K) [kg/m3],viscosity (333.15 K) [mPa·s],mass density (333.15 K) [kg/m3],Normal melting temperature [°C],Structure (SMILES)
36.96 ± 0.79,929.96 ± 1.9,28.35 ± 0.61,926.43 ± 1.9,22.04 ± 0.47,922.87 ± 1.9,17.32 ± 0.37,919.28 ± 1.8,13.83 ± 0.3,915.66 ± 1.8,11.14 ± 0.24,912 ± 1.8,9.099 ± 0.2,908.31 ± 1.8,7.521 ± 0.16,904.57 ± 1.8,6.283 ± 0.14,900.78 ± 1.8,–,OCC1CCCCC1 [cyclohexylmethanol]
1.485 ± 0.032,748.82 ± 1.5,1.359 ± 0.029,745.2 ± 1.5,1.25 ± 0.027,741.57 ± 1.5,1.155 ± 0.025,737.94 ± 1.5,1.073 ± 0.023,734.3 ± 1.5,0.998 ± 0.022,730.64 ± 1.5,0.932 ± 0.02,726.98 ± 1.5,0.873 ± 0.019,723.31 ± 1.5,0.819 ± 0.018,719.64 ± 1.4,-8.20 ± 6,CCCCCCCCCCCC [dodecane]
6.89 ± 0.15,822.24 ± 1.6,5.805 ± 0.12,818.74 ± 1.6,4.941 ± 0.11,815.22 ± 1.6,4.233 ± 0.09,811.68 ± 1.6,3.648 ± 0.077,808.11 ± 1.6,3.165 ± 0.067,804.52 ± 1.6,2.762 ± 0.059,800.88 ± 1.6,2.423 ± 0.051,797.2 ± 1.6,2.137 ± 0.045,793.49 ± 1.6,-34.10 ± 6,CCCCCCCO [heptan-1-ol]
0.727 ± 0.016,769.33 ± 1.5,0.681 ± 0.015,765 ± 1.5,0.64 ± 0.014,760.67 ± 1.5,0.604 ± 0.013,756.32 ± 1.5,0.571 ± 0.012,751.95 ± 1.5,0.542 ± 0.012,747.56 ± 1.5,0.515 ± 0.011,743.15 ± 1.5,0.491 ± 0.011,738.73 ± 1.5,0.469 ± 0.01,734.28 ± 1.5,-125.30 ± 6,CC1CCCCC1 [methylcyclohexane]
